Measurements as given in patent US8921376B2, “Pyrrolopyridines useful as inhibitors of protein kinase” (Vertex Pharmaceuticals Incorporated, priority 2005, dated 2014).

Key:
Assay type in all cases: biochemical
Settings in all cases: Table 6; enzyme inhibition data (Ki)
[1] = molecular target: JAK2 (Homo sapiens, UniProt O60674); test: JAK2 inhibition assay (as Example 3 with JAK-2 enzyme)
Summary of the method: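 Radiometric JAK2 kinase assay: poly(Glu)4Tyr substrate at final 15 μM, ATP at final 12 μM with [33P]; buffer 100 mM HEPES pH 7.4, 1 mM DTT, 10 mM MgCl2, 25 mM NaCl, 0.01% BSA. 20 min at 25 °C, TCA-stopped, 33P incorporation counted after filter capture.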

[2] = molecular target: ROCK I (Homo sapiens, UniProt Q13464); test: ROCK-I inhibition assay (radioactive enzyme assay, MBP substrate)
ROCK I, sequence (Q13464 whole entry): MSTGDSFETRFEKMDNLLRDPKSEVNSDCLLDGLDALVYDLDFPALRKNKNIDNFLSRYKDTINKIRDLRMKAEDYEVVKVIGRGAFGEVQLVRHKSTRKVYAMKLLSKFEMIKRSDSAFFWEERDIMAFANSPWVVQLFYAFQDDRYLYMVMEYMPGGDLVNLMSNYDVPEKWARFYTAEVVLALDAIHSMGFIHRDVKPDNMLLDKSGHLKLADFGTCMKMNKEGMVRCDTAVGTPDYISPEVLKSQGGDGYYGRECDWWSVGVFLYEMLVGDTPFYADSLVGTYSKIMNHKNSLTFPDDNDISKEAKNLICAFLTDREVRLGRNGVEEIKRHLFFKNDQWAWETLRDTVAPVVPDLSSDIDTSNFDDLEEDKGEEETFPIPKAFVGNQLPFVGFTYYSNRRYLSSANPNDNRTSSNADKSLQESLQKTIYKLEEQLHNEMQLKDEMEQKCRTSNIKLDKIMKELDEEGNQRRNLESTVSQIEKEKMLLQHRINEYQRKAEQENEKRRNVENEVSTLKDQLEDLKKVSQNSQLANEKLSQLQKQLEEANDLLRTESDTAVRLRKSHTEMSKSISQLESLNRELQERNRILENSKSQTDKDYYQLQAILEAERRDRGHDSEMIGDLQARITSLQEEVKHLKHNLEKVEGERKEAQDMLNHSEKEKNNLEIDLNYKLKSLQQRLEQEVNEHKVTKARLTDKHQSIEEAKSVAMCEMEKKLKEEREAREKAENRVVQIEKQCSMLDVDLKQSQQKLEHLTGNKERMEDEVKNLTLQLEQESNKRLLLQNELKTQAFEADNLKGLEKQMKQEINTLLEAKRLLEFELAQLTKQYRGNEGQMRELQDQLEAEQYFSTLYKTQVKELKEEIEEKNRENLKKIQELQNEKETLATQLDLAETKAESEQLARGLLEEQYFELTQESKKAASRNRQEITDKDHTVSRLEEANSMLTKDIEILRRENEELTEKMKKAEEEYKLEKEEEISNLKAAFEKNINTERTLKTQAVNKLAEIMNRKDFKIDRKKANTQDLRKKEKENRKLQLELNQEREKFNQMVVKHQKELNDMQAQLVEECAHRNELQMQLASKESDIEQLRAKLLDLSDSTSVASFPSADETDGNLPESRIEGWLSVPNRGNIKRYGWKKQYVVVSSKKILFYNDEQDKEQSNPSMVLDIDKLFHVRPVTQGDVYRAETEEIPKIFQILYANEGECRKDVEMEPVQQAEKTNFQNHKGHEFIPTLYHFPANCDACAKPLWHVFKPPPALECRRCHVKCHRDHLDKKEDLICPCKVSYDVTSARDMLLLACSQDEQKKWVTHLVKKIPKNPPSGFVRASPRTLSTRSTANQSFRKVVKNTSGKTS
Summary of the method: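 Human ROCK at 5 nM phosphorylated 27 μM myelin basic protein with 13 μM [γ-33P]ATP (final) in HEPES pH 7.5, MgCl2, NaCl, DTT and 1.5% DMSO. Reactions ran 2 h at room temperature before TCA quench and filter-plate scintillation counting. After background subtraction, data were fit to give Ki(app).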

[3] = molecular target: T1, JAK3 (Homo sapiens, UniProt P52333); test: JAK3 inhibition assay (33P incorporation into poly(Glu)4Tyr)
T1 sequence (P52333 1-1124): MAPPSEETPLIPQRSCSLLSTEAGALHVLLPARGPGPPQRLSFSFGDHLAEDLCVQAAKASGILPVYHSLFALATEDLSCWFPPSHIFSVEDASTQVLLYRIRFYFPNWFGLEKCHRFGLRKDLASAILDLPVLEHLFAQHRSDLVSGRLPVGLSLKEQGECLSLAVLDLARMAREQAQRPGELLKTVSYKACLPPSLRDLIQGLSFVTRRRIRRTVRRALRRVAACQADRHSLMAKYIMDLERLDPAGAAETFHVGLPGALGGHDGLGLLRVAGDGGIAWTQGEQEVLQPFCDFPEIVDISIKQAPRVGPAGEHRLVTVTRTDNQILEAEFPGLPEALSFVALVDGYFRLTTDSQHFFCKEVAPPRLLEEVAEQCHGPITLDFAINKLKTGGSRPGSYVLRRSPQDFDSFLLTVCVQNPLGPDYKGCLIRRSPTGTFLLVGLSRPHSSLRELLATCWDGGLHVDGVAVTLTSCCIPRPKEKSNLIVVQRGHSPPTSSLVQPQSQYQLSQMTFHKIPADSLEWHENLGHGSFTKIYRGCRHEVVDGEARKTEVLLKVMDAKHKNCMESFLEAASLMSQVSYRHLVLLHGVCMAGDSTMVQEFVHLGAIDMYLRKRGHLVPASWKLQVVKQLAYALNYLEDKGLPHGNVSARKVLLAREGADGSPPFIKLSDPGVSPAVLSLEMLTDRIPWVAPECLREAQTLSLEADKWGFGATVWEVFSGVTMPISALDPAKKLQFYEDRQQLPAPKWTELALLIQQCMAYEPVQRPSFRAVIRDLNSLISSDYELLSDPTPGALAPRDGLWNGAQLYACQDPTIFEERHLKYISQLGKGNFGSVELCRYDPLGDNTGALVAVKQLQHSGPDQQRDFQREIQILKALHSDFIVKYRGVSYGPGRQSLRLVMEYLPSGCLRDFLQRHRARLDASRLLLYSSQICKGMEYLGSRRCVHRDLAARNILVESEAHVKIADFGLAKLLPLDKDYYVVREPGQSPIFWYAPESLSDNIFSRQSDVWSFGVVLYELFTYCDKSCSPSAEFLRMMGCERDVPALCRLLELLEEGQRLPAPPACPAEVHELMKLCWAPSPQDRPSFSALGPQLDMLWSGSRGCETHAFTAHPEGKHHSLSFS
Summary of the method: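 Human JAK3 at 1 nM phosphorylated 1 μM poly(Glu)4Tyr using 5 μM [33P]ATP in HEPES pH 7.4 buffer with MgCl2, DTT and BSA. Reactions ran 20 min at 25° C. and were stopped with TCA. 33P incorporation was measured by scintillation after glass-fiber filter capture.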

JAK2, sequence (O60674 whole entry): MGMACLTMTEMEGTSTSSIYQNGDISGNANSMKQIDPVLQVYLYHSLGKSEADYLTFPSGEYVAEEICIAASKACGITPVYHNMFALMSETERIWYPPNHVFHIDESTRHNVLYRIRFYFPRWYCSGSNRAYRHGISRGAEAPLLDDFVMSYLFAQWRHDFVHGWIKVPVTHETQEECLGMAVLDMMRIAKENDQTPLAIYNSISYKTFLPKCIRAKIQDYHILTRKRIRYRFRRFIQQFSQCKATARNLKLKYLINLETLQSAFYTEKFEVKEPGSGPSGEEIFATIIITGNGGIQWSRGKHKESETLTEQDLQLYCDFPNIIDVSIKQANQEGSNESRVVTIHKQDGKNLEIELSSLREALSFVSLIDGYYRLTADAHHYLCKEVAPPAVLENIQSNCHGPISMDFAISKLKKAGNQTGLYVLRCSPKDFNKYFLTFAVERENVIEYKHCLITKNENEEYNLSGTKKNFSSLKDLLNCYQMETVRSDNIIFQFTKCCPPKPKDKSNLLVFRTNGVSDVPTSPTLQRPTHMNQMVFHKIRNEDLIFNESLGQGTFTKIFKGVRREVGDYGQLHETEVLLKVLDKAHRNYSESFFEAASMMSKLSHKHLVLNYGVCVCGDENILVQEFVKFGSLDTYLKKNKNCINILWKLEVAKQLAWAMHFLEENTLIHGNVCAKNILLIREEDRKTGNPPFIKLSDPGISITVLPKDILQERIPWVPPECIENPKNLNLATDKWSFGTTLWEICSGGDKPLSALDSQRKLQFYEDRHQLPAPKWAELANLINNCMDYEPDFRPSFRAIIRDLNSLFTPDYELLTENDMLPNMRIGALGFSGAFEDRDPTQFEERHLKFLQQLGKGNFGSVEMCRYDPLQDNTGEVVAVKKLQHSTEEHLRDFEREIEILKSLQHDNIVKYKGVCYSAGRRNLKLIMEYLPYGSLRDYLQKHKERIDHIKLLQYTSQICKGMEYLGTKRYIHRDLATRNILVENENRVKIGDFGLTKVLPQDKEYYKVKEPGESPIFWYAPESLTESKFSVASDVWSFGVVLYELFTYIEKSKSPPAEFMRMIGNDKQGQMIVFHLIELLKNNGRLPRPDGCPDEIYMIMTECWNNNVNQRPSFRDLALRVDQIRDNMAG

Compound | Ki [1] [nM] | Ki [2] [nM] | Ki [3] [nM]
Clc1cnc2[nH]ccc2c1N[C@@H]1CCC[C@H]1OCc1ccccc1 [compound 152] | < 500 | < 500 | < 500
CC1CCCCC1Nc1c(Cl)cnc2[nH]ccc12 (stereo not drawn) [compound 153] | < 500 | 500 to 5000 | < 500
COc1ccc(OC)c(Nc2c(Cl)cnc3[nH]ccc23)c1 [compound 154] | < 500 | > 4000 | < 500
CCC(=O)Nc1cccc(Nc2c(Cl)cnc3[nH]ccc23)c1 [compound 155] | < 500 | > 4000 | < 500
Clc1cnc2[nH]ccc2c1Nc1cccc(-c2cnco2)c1 [compound 156] | < 500 | > 4000 | < 500
Clc1cnc2[nH]ccc2c1NC1CCCN(Cc2ccccc2)C1 (stereo not drawn) [compound 157] | < 500 | < 500 | < 500
Clc1ccccc1Nc1c(Cl)cnc2[nH]ccc12 [compound 158] | < 500 | 500 to 5000 | < 500
N#Cc1ccc(Cl)cc1Nc1c(Cl)cnc2[nH]ccc12 [compound 159] | < 500 | > 4000 | < 500
Cc1ccc(C(N)=O)cc1Nc1c(Cl)cnc2[nH]ccc12 [compound 160] | 500 to 5000 | > 4000 | 500 to 5000
CC1CCCC(Nc2c(Cl)cnc3[nH]ccc23)C1 (stereo not drawn) [compound 161] | < 500 | < 500 | < 500
CC1CC(Nc2c(Cl)cnc3[nH]ccc23)CC(C)(C)C1 (stereo not drawn) [compound 162] | < 500 | 500 to 5000 | < 500
N#Cc1ccc(Nc2c(Cl)cnc3[nH]ccc23)c(Cl)c1 [compound 163] | < 500 | > 4000 | < 500
CC(C)(C)OC(=O)N1CCC[C@@H](Nc2c(Cl)cnc3[nH]ccc23)C1 [compound 164] | < 500 | > 4000 | < 500

Continued, values first:

Ki [1] [nM] | Ki [2] [nM] | Ki [3] [nM] | Compound
< 500 | > 4000 | < 500 | C#CCOC(=O)N1CC[C@H](Nc2c(Cl)cnc3[nH]ccc23)C1 [compound 165]
< 500 | > 4000 | 500 to 5000 | COC(=O)N1CC[C@H](Nc2c(Cl)cnc3[nH]ccc23)C1 [compound 166]
< 500 | > 4000 | < 500 | CCCOC(=O)N1CC[C@H](Nc2c(Cl)cnc3[nH]ccc23)C1 [compound 167]
< 500 | > 4000 | 500 to 5000 | CCC(=O)N1CC[C@H](Nc2c(Cl)cnc3[nH]ccc23)C1 [compound 168]
< 500 | 500 to 5000 | < 500 | C#CCOC(=O)N1CC[C@@H](Nc2c(Cl)cnc3[nH]ccc23)C1 [compound 169]
< 500 | 500 to 5000 | < 500 | COC(=O)N1CC[C@@H](Nc2c(Cl)cnc3[nH]ccc23)C1 [compound 170]
< 500 | 500 to 5000 | < 500 | CCCOC(=O)N1CC[C@@H](Nc2c(Cl)cnc3[nH]ccc23)C1 [compound 171]
< 500 | 500 to 5000 | < 500 | C#CCOC(=O)N1CCCC(Nc2c(Cl)cnc3[nH]ccc23)C1 (stereo not drawn) [compound 172]
< 500 | 500 to 5000 | < 500 | COC(=O)N1CCCC(Nc2c(Cl)cnc3[nH]ccc23)C1 (stereo not drawn) [compound 173]
< 500 | 500 to 5000 | < 500 | CCCOC(=O)N1CCCC(Nc2c(Cl)cnc3[nH]ccc23)C1 (stereo not drawn) [compound 174]
< 500 | > 4000 | < 500 | CCC(=O)N1CCCC(Nc2c(Cl)cnc3[nH]ccc23)C1 (stereo not drawn) [compound 175]
